By IC50 is commonly meant the concentration that inhibits the measured activity by half.

This test addresses T1, myeloperoxidase (MPO) (Homo sapiens, UniProt P05164).
T1 sequence (P05164 49-745): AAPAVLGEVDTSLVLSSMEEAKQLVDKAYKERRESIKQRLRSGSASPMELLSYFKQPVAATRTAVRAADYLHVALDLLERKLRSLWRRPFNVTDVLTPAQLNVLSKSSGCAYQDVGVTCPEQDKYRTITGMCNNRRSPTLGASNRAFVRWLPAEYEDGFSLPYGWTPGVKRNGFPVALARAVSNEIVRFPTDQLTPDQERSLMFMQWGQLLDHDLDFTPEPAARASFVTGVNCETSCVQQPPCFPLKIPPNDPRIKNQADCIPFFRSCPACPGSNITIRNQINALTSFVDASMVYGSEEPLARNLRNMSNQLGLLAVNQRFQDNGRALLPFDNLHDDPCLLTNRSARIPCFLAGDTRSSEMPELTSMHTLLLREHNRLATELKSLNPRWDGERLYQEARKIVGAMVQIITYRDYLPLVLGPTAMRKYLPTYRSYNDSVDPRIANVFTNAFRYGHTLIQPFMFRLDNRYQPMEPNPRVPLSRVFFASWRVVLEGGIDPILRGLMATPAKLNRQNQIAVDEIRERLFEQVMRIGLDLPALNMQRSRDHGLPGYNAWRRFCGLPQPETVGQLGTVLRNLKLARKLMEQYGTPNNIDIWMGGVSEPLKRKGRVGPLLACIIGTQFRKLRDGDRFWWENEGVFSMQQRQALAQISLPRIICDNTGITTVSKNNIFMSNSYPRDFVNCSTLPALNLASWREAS
Nature of the test: MPO peroxidation assay (Amplex Red assay). The note with it: MPO peroxidation, potency range class; read-out: Amplex Red IC50. Type of test: biochemical. Put shortly: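 MPO (200 pM) with 40 nM H2O2 was preincubated 10 min at room temperature with inhibitor in 100 mM KPi pH 7.4. A mix of Amplex Red (200 μM) and H2O2 (10 mM) was then added and resorufin fluorescence read kinetically for 15 min. Slopes over 180–540 s gave % inhibition and IC50 via a four-parameter Hill fit.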
As to `Nc1cc(OCc2ccc(-c3ccc(Cl)nc3)cc2OC(F)(F)F)c2nn[nH]c2n1` [Example 302, 7-((4-(6-chloropyridin-3-yl)-2-(trifluoromethoxy)benzyl)oxy)-3H-[1,2,3] triazolo[4,5-b]pyridin-5-amine], the IC50 lay within 1 to 100 nM.
With `Nc1cc(OCc2ccc(-c3ccc(N4CCOCC4)nc3)cc2OC(F)(F)F)c2nn[nH]c2n1` [Example 303, 7-((4-(6-morpholinopyridin-3-yl)-2-(trifluoromethoxy)benzyl)oxy)-3H-[1,2,3] triazolo[4,5-b]pyridin-5-amine] the figure was 1 to 100 nM; with `Nc1cc(OCc2ccc(-c3ccnc(O)c3)cc2OC(F)(F)F)c2nn[nH]c2n1` [Example 304, 4-(4-(((5-amino-3H-[1,2,3]triazolo[4,5-b]pyridin-7-yl)oxy)methyl)-3-(trifluoromethoxy)phenyl)pyridin-2-ol], 1 to 100 nM.
As for `Nc1cc(OCc2ccc(-c3ccc(O)nc3)cc2OC(F)(F)F)c2nn[nH]c2n1` [Example 307, 5-(4-(((5-amino-3H-[1,2,3]triazolo[4,5-b]pyridin-7-yl)oxy)methyl)-3-(trifluoromethoxy)phenyl)pyridin-2-ol], the IC50 was 1 to 100 nM.
For the compound `Nc1cc(OCc2ccc(-c3cncc(F)c3)cc2OC(F)(F)F)c2nn[nH]c2n1` [Example 308, 7-((4-(5-fluoropyridin-3-yl)-2-(trifluoromethoxy)benzyl)oxy)-3H-[1,2,3] triazolo[4,5-b]pyridin-5-amine], the IC50 was 1 to 100 nM.
`COc1cc(-c2ccc(COc3cc(N)nc4[nH]nnc34)c(OC(F)(F)F)c2)c(F)cn1` [Example 309, 7-((4-(5-fluoro-2-methoxypyridin-4-yl)-2-(trifluoromethoxy)benzyl)oxy)-3H-[1,2,3] triazolo[4,5-b]pyridin-5-amine]: the IC50 was 1 to 100 nM.
With `COc1ccc(-c2ccc(COc3cc(N)nc4[nH]nnc34)c(C#N)c2)cn1` [Example 310, 2-(((5-amino-3H-[1,2,3]triazolo[4,5-b]pyridin-7-yl)oxy)methyl)-5-(6-methoxypyridin-3-yl)benzonitrile] the figure was 1 to 100 nM.
As for `N#Cc1cc(-c2ccc(N)nc2)ccc1COc1cc(N)nc2[nH]nnc12` [Example 311, 2-(((5-amino-3H-[1,2,3]triazolo[4,5-b]pyridin-7-yl)oxy)methyl)-5-(6-aminopyridin-3-yl)benzonitrile], the IC50 was in the range of 1 to 100 nM.
Take `N#Cc1cc(-c2ccc(O)nc2)ccc1COc1cc(N)nc2[nH]nnc12` [Example 312, 2-(((5-amino-3H-[1,2,3]triazolo[4,5-b]pyridin-7-yl)oxy)methyl)-5-(6-hydroxypyridin-3-yl)benzonitrile]: the 50% inhibitory concentration (IC50) fell in the range of 1 to 100 nM.
For `N#Cc1cc(-c2ccc(CO)nc2)ccc1COc1cc(N)nc2[nH]nnc12` [Example 313, 2-(((5-amino-3H-[1,2,3]triazolo[4,5-b]pyridin-7-yl)oxy)methyl)-5-(6-(hydroxymethyl)pyridin-3-yl)benzonitrile], the IC50 lay in the range of 1 to 100 nM.
With `COc1ncc(-c2ccc(COc3cc(N)nc4[nH]nnc34)c(C#N)c2)cn1` [Example 314, 2-(((5-amino-3H-[1,2,3]triazolo[4,5-b]pyridin-7-yl)oxy)methyl)-5-(2-methoxypyrimidin-5-yl)benzonitrile] the figure was 1 to 100 nM.
Consider `N#Cc1cc(-c2ccc(C(F)(F)F)nc2)ccc1COc1cc(N)nc2[nH]nnc12` [Example 315, 2-(((5-amino-3H-[1,2,3]triazolo[4,5-b]pyridin-7-yl)oxy)methyl)-5-(6-(trifluoromethyl)pyridin-3-yl)benzonitrile], for which the IC50 is 1 to 100 nM.
With `N#Cc1cc(-c2ccc(C3CC3)nc2)ccc1COc1cc(N)nc2[nH]nnc12` [Example 316, 2-(((5-amino-3H-[1,2,3]triazolo[4,5-b]pyridin-7-yl)oxy)methyl)-5-(6-cyclopropylpyridin-3-yl)benzonitrile], the IC50 fell in the range of 1 to 100 nM.
`CN(C)c1ncc(-c2ccc(COc3cc(N)nc4[nH]nnc34)c(C#N)c2)cn1` [Example 317, 2-(((5-amino-3H-[1,2,3]triazolo[4,5-b]pyridin-7-yl)oxy)methyl)-5-(2-(dimethylamino)pyrimidin-5-yl)benzonitrile]: the concentration for half-maximal inhibition (IC50) lay within 1 to 100 nM.
Regarding `CC(=O)N1CCN(c2ccc(-c3ccc(COc4cc(N)nc5[nH]nnc45)c(C#N)c3)cn2)CC1` [Example 318, 5-(6-(4-acetylpiperazin-1-yl)pyridin-3-yl)-2-(((5-amino-3H-[1,2,3]triazolo[4,5-b]pyridin-7-yl)oxy)methyl) benzonitrile], the IC50 lay in the range of 1 to 100 nM.
As to `CN1CCN(c2ccc(-c3ccc(COc4cc(N)nc5[nH]nnc45)c(C#N)c3)cn2)CC1` [Example 319, 2-(((5-amino-3H-[1,2,3]triazolo[4,5-b]pyridin-7-yl)oxy)methyl)-5-(6-(4-methylpiperazin-1-yl)pyridin-3-yl)benzonitrile], the IC50 lay in the range of 1 to 100 nM.
Take `N#Cc1cc(-c2ccc(N3CCCCC3)nc2)ccc1COc1cc(N)nc2[nH]nnc12` [Example 320, 2-(((5-amino-3H-[1,2,3]triazolo[4,5-b]pyridin-7-yl)oxy)methyl)-5-(6-(piperidin-1-yl)pyridin-3-yl)benzonitrile]: the half-maximal inhibitory concentration (IC50) was in the range of 101 to 999 nM.
Consider `CN1CCN(c2ncc(-c3ccc(COc4cc(N)nc5[nH]nnc45)c(C#N)c3)cn2)CC1` [Example 321, 2-(((5-amino-3H-[1,2,3]triazolo[4,5-b]pyridin-7-yl)oxy)methyl)-5-(2-(4-methylpiperazin-1-yl)pyrimidin-5-yl)benzonitrile], for which the IC50 was 1 to 100 nM.
Consider `CS(=O)(=O)c1cncc(-c2ccc(COc3cc(N)nc4[nH]nnc34)c(C#N)c2)c1` [Example 322, 2-(((5-amino-3H-[1,2,3]triazolo[4,5-b]pyridin-7-yl)oxy)methyl)-5-(5-(methylsulfonyl)pyridin-3-yl)benzonitrile], for which the 50% inhibitory concentration (IC50) is 1 to 100 nM.
Regarding `COc1ncc(-c2ccc(COc3cc(N)nc4[nH]nnc34)c(C#N)c2)cc1F` [Example 323, 2-(((5-amino-3H-[1,2,3]triazolo[4,5-b]pyridin-7-yl)oxy)methyl)-5-(5-fluoro-6-methoxypyridin-3-yl)benzonitrile], the IC50 lay within 1 to 100 nM.
On to `N#Cc1cc(-c2ccc(F)nc2F)ccc1COc1cc(N)nc2[nH]nnc12` [Example 324, 2-(((5-amino-3H-[1,2,3]triazolo[4,5-b]pyridin-7-yl)oxy)methyl)-5-(2,6-difluoropyridin-3-yl)benzonitrile], for which the IC50 fell in the range of 1 to 100 nM.
As for `N#Cc1ccc(-c2ccc(COc3cc(N)nc4[nH]nnc34)c(C#N)c2)cn1` [Example 325, 5-(4-(((5-amino-3H-[1,2,3]triazolo[4,5-b]pyridin-7-yl)oxy)methyl)-3-cyanophenyl) picolinonitrile], the figure is 1 to 100 nM.
Take `N#Cc1cc(-c2ccc(N3CCCC3)nc2)ccc1COc1cc(N)nc2[nH]nnc12` [Example 326, 2-(((5-amino-3H-[1,2,3]triazolo[4,5-b]pyridin-7-yl)oxy)methyl)-5-(6-(pyrrolidin-1-yl)pyridin-3-yl)benzonitrile]: the IC50 lay within 1 to 100 nM.
With `N#Cc1cc(-c2ccc(N3CCNCC3)nc2)ccc1COc1cc(N)nc2[nH]nnc12` [Example 327, 2-(((5-amino-3H-[1,2,3]triazolo[4,5-b]pyridin-7-yl)oxy)methyl)-5-(6-(piperazin-1-yl)pyridin-3-yl)benzonitrile], the IC50 lay in the range of 1 to 100 nM.
As for `N#Cc1cc(-c2ccc(CN)nc2)ccc1COc1cc(N)nc2[nH]nnc12` [Example 328, 2-(((5-amino-3H-[1,2,3]triazolo[4,5-b]pyridin-7-yl)oxy)methyl)-5-(6-(aminomethyl)pyridin-3-yl)benzonitrile], the figure is 1 to 100 nM; as for `N#Cc1cc(-c2cnc(N3CCNCC3)nc2)ccc1COc1cc(N)nc2[nH]nnc12` [Example 329, 2-(((5-amino-3H-[1,2,3]triazolo[4,5-b]pyridin-7-yl)oxy)methyl)-5-(2-(piperazin-1-yl)pyrimidin-5-yl)benzonitrile], 1 to 100 nM.
Consider `N#Cc1cc(-c2ccc(F)nc2)ccc1COc1cc(N)nc2[nH]nnc12` [Example 330, 2-(((5-amino-3H-[1,2,3]triazolo[4,5-b]pyridin-7-yl)oxy)methyl)-5-(6-fluoropyridin-3-yl)benzonitrile], for which the half-maximal inhibitory concentration (IC50) fell in the range of 1 to 100 nM.
With `COc1ccccc1CNC(=O)c1ccc(COc2cc(N)nc3[nH]nnc23)c(Cl)c1` [Example 331, 4-((5-amino-3H-[1,2,3]triazolo[4,5-b]pyridin-7-yloxy)methyl)-3-chloro-N-(2-methoxybenzyl) benzamide], the IC50 lay within 1 to 100 nM.
Consider `Nc1cc(OCc2c(F)cc(-c3cccnc3)cc2F)c2nn[nH]c2n1` [Example 332, 7-((2,6-difluoro-4-(pyridin-3-yl)benzyl)oxy)-3H-[1,2,3] triazolo[4,5-b]pyridin-5-amine], for which the half-maximal inhibitory concentration (IC50) lay in the range of 1 to 100 nM.
As to `COc1ccc(-c2cc(F)c(COc3cc(N)nc4[nH]nnc34)c(F)c2)cn1` [Example 333, 7-((2,6-difluoro-4-(6-methoxypyridin-3-yl)benzyl)oxy)-3H-[1,2,3]triazolo[4,5-b] pyridin-5-amine], the IC50 is 1 to 100 nM.

For the origin of these results see US10316035B2, “Triazolopyridine inhibitors of myeloperoxidase” (BRISTOL-MYERS SQUIBB COMPANY, priority 2015, dated 2019).
